Here are results for two molecules from ChEMBL document CHEMBL1201862, “PubChem BioAssay data set” (2004).

Molecules are shown by their SMILES.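 How tested: cells in 96-well plates exposed to compound for 48 hours at five concentrations. GI50 = concentration required for 50% inhibition of growth.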 Activity calls are given as the source filed them. No stated cut-off is given here; in the data, active = GI50 up to about 1.1 µM and inactive = higher. A value given as a limit tells only on which side of the number the result lay.

Some test systems named below: NCI-H23; UACC-257; SN12C; HT-29; MOLT-4; SNB-19; M14; EKVX; OVCAR-3; NCI-H226; SF-539; SK-MEL-5; CAKI-1; HCT-15; LOX IMVI; MCF7; A498; Malme-3M; RXF 393; OVCAR-8.
What all share (assay): NCI tumour cell line growth inhibition, 48 h

As for `Cc1ccc(C(=O)N/N=C(\N=N\c2ccc([N+](=O)[O-])cc2)c2ccc(N(CCC#N)CCC#N)cc2C)cc1`, the GI50 in the experiment on NCI-H23 was > 100 µM (inactive); with UACC-257 it was 77.6 µM (inactive); in the experiment on SN12C, > 100 µM (inactive); in the experiment on HT-29, 34.3 µM (inactive); in the experiment on MOLT-4 it was 57.3 µM (inactive); in the experiment on SNB-19 it was > 100 µM (inactive). Besides, the GI50 in the experiment on M14 is 58.3 µM (inactive); with EKVX it was > 100 µM (inactive); with OVCAR-3, 39.6 µM (inactive); in the experiment with NCI-H226 it was 31.3 µM (inactive); in the experiment on SF-539 it was > 100 µM (inactive); with SK-MEL-5, 75.3 µM (inactive). The GI50 in the experiment with CAKI-1 is > 100 µM (inactive); in the experiment on HCT-15, more than 100 µM; in the experiment with LOX IMVI it was 60.8 µM (inactive); in the experiment with MCF7 it was 83.6 µM (inactive); in the experiment on A498, 64.9 µM (inactive); in the experiment on Malme-3M, > 100 µM (inactive). Also, the GI50 in the experiment on RXF 393 is 16.7 µM (inactive); in the experiment with OVCAR-8, 28.1 µM (inactive).
`N#Cc1c(Cl)c2cccnc2n2c1nc1ccccc12`: the GI50 in the experiment with NCI-H23 was 2.07 µM (inactive); in the experiment with UACC-257, 2.69 µM (inactive); in the experiment on SN12C, 2.04 µM (inactive); in the experiment with HT-29 it was 1.94 µM (inactive); with MOLT-4, 2.04 µM (inactive); with SNB-19, 15.8 µM (inactive). Further, the GI50 in the experiment on M14 was 3.15 µM (inactive); in the experiment on EKVX, 4.22 µM (inactive); in the experiment with OVCAR-3, 2.72 µM (inactive); in the experiment on NCI-H226, 2.93 µM (inactive); with SF-539, 2.35 µM (inactive); in the experiment with SK-MEL-5, 1.13 µM (inactive). The GI50 in the experiment with CAKI-1 was 1.9 µM (inactive); in the experiment on HCT-15, 2.04 µM; with LOX IMVI, 1.66 µM (inactive); in the experiment with MCF7, 2.71 µM (inactive); in the experiment on A498, 17.3 µM (inactive); in the experiment on Malme-3M, 1.84 µM (inactive). The GI50 was 1.42 µM (inactive) in the experiment on RXF 393 and 1.96 µM (inactive) in the experiment on OVCAR-8.
